Source: US12497365B2, “4-pyridinyl formamide compound or derivative thereof, preparation method therefor, herbicidal composition and use thereof” (Qingdao Kingagroot Chemical Compound Co., Ltd., priority 2019, dated 2025)

What was measured:
Experiment in all cases: Weeding effect in post-emergence stage
Format in all cases: in vivo
Conditions in all cases: active ingredient 2000 g/ha, 3 weeks after application, fresh weight control rate
[1] = test system: Amaranthus retroflexus L.
Source text: (§1) The activity level criteria for plant damage (i.e., growth control rate) are as follows:
(§2) The above growth control rates are fresh weight control rates.
(§3) Experiment on weeding effect in post-emergence stage: monocotyledonous and dicotyledonous weed seeds and major crop seeds (wheat, corn, rice, soybean, cotton, oilseed rape, millet, sorghum) were placed in plastic pots filled with soil, then covered with 0.5-2 cm of soil, allowed to grow in a good greenhouse environment. After 2 weeks of sowing, the test plants were treated in the 2-3 leaf stage. The tested compounds of the present invention were respectively dissolved in acetone at the dosage of 2000, 1000, 500, 250, 125 g/ha, then added with Tween 80 and 1.5 liter/ha of emulsifiable concentrate of methyl oleate as synergist, diluted with a certain amount of water to obtain a solution with a certain concentration, and sprayed with a spray tower onto the plants. After the application, the plants were cultured for 3 weeks in the greenhouse, and then the experimental results were listed in Table 1.

Descurainia sophia = test system: Descurainia sophia
Source text: as §1, §2, §3

Abutilon theophrasti = test system: Abutilon theophrasti
Source text: as §1, §2, §3

Chenopodium album = test system: Chenopodium album
Source text: as §1, §2, §3

Cc1nccc(C(=O)Nc2nnnn2C)c1Cl [Compound 1-1]
Weeding effect, activity level (growth control rate), Amaranthus retroflexus L. [1]: 5 (Level 5: growth control rate is above 85%)
Weeding effect, activity level (growth control rate), Descurainia sophia (Descurainia sophia): 5 (Level 5: growth control rate is above 85%)
Weeding effect, activity level (growth control rate), Abutilon theophrasti (Abutilon theophrasti): 5 (Level 5: growth control rate is above 85%)
Weeding effect, activity level (growth control rate), Chenopodium album (Chenopodium album): 5 (Level 5: growth control rate is above 85%)

Cn1nnnc1NC(=O)c1ccnc(C(C)(C)C)c1Cl [Compound 1-2]
Weeding effect, activity level (growth control rate), Amaranthus retroflexus L. [1]: 5 (Level 5: growth control rate is above 85%)
Weeding effect, activity level (growth control rate), Descurainia sophia (Descurainia sophia): 5 (Level 5: growth control rate is above 85%)
Weeding effect, activity level (growth control rate), Abutilon theophrasti (Abutilon theophrasti): 5 (Level 5: growth control rate is above 85%)
Weeding effect, activity level (growth control rate), Chenopodium album (Chenopodium album): 5 (Level 5: growth control rate is above 85%)

Cn1nnnc1NC(=O)c1ccnc(C2CC2)c1Cl [Compound 1-3]
Weeding effect, activity level (growth control rate), Amaranthus retroflexus L. [1]: 5 (Level 5: growth control rate is above 85%)
Weeding effect, activity level (growth control rate), Descurainia sophia (Descurainia sophia): 5 (Level 5: growth control rate is above 85%)
Weeding effect, activity level (growth control rate), Abutilon theophrasti (Abutilon theophrasti): 5 (Level 5: growth control rate is above 85%)
Weeding effect, activity level (growth control rate), Chenopodium album (Chenopodium album): 5 (Level 5: growth control rate is above 85%)

Cn1nnnc1NC(=O)c1ccnc(C2CCCCC2)c1Cl [Compound 1-4]
Weeding effect, activity level (growth control rate), Amaranthus retroflexus L. [1]: 5 (Level 5: growth control rate is above 85%)
Weeding effect, activity level (growth control rate), Descurainia sophia (Descurainia sophia): 5 (Level 5: growth control rate is above 85%)
Weeding effect, activity level (growth control rate), Abutilon theophrasti (Abutilon theophrasti): 5 (Level 5: growth control rate is above 85%)
Weeding effect, activity level (growth control rate), Chenopodium album (Chenopodium album): 5 (Level 5: growth control rate is above 85%)

Cn1nnnc1NC(=O)c1ccnc(C2=CCCCC2)c1Cl [Compound 1-5]
Weeding effect, activity level (growth control rate), Amaranthus retroflexus L. [1]: 5 (Level 5: growth control rate is above 85%)
Weeding effect, activity level (growth control rate), Descurainia sophia (Descurainia sophia): 5 (Level 5: growth control rate is above 85%)
Weeding effect, activity level (growth control rate), Abutilon theophrasti (Abutilon theophrasti): 5 (Level 5: growth control rate is above 85%)
Weeding effect, activity level (growth control rate), Chenopodium album (Chenopodium album): 5 (Level 5: growth control rate is above 85%)

Cn1nnnc1NC(=O)c1ccnc(C2=CCN(C(=O)OC(C)(C)C)CC2)c1Cl [Compound 1-6]
Weeding effect, activity level (growth control rate), Amaranthus retroflexus L. [1]: 5 (Level 5: growth control rate is above 85%)
Weeding effect, activity level (growth control rate), Descurainia sophia (Descurainia sophia): 5 (Level 5: growth control rate is above 85%)
Weeding effect, activity level (growth control rate), Abutilon theophrasti (Abutilon theophrasti): 5 (Level 5: growth control rate is above 85%)
Weeding effect, activity level (growth control rate), Chenopodium album (Chenopodium album): 5 (Level 5: growth control rate is above 85%)

Cn1nnnc1NC(=O)c1ccnc(C2=CCOCC2)c1Cl [Compound 1-7]
Weeding effect, activity level (growth control rate), Amaranthus retroflexus L. [1]: 5 (Level 5: growth control rate is above 85%)
Weeding effect, activity level (growth control rate), Descurainia sophia (Descurainia sophia): 5 (Level 5: growth control rate is above 85%)
Weeding effect, activity level (growth control rate), Abutilon theophrasti (Abutilon theophrasti): 5 (Level 5: growth control rate is above 85%)
Weeding effect, activity level (growth control rate), Chenopodium album (Chenopodium album): 5 (Level 5: growth control rate is above 85%)

Cn1nnnc1NC(=O)c1ccnc(-c2ccccc2)c1Cl [Compound 1-8]
Weeding effect, activity level (growth control rate), Amaranthus retroflexus L. [1]: 5 (Level 5: growth control rate is above 85%)
Weeding effect, activity level (growth control rate), Descurainia sophia (Descurainia sophia): 5 (Level 5: growth control rate is above 85%)
Weeding effect, activity level (growth control rate), Abutilon theophrasti (Abutilon theophrasti): 5 (Level 5: growth control rate is above 85%)
Weeding effect, activity level (growth control rate), Chenopodium album (Chenopodium album): 5 (Level 5: growth control rate is above 85%)

Cc1ccccc1-c1nccc(C(=O)Nc2nnnn2C)c1Cl [Compound 1-9]
Weeding effect, activity level (growth control rate), Amaranthus retroflexus L. [1]: 5 (Level 5: growth control rate is above 85%)
Weeding effect, activity level (growth control rate), Descurainia sophia (Descurainia sophia): 5 (Level 5: growth control rate is above 85%)
Weeding effect, activity level (growth control rate), Abutilon theophrasti (Abutilon theophrasti): 5 (Level 5: growth control rate is above 85%)
Weeding effect, activity level (growth control rate), Chenopodium album (Chenopodium album): 5 (Level 5: growth control rate is above 85%)

Cc1cccc(-c2nccc(C(=O)Nc3nnnn3C)c2Cl)c1 [Compound 1-10]
Weeding effect, activity level (growth control rate), Amaranthus retroflexus L. [1]: 5 (Level 5: growth control rate is above 85%)
Weeding effect, activity level (growth control rate), Descurainia sophia (Descurainia sophia): 5 (Level 5: growth control rate is above 85%)
Weeding effect, activity level (growth control rate), Abutilon theophrasti (Abutilon theophrasti): 5 (Level 5: growth control rate is above 85%)
Weeding effect, activity level (growth control rate), Chenopodium album (Chenopodium album): 5 (Level 5: growth control rate is above 85%)

Cc1ccc(-c2nccc(C(=O)Nc3nnnn3C)c2Cl)cc1 [Compound 1-11]
Weeding effect, activity level (growth control rate), Amaranthus retroflexus L. [1]: 5 (Level 5: growth control rate is above 85%)
Weeding effect, activity level (growth control rate), Descurainia sophia (Descurainia sophia): 5 (Level 5: growth control rate is above 85%)
Weeding effect, activity level (growth control rate), Abutilon theophrasti (Abutilon theophrasti): 5 (Level 5: growth control rate is above 85%)
Weeding effect, activity level (growth control rate), Chenopodium album (Chenopodium album): 5 (Level 5: growth control rate is above 85%)

CCc1ccccc1-c1nccc(C(=O)Nc2nnnn2C)c1Cl [Compound 1-12]
Weeding effect, activity level (growth control rate), Amaranthus retroflexus L. [1]: 5 (Level 5: growth control rate is above 85%)
Weeding effect, activity level (growth control rate), Descurainia sophia (Descurainia sophia): 5 (Level 5: growth control rate is above 85%)
Weeding effect, activity level (growth control rate), Abutilon theophrasti (Abutilon theophrasti): 5 (Level 5: growth control rate is above 85%)
Weeding effect, activity level (growth control rate), Chenopodium album (Chenopodium album): 5 (Level 5: growth control rate is above 85%)

CCCCCc1ccc(-c2nccc(C(=O)Nc3nnnn3C)c2Cl)cc1 [Compound 1-13]
Weeding effect, activity level (growth control rate), Amaranthus retroflexus L. [1]: 5 (Level 5: growth control rate is above 85%)
Weeding effect, activity level (growth control rate), Descurainia sophia (Descurainia sophia): 5 (Level 5: growth control rate is above 85%)
Weeding effect, activity level (growth control rate), Abutilon theophrasti (Abutilon theophrasti): 5 (Level 5: growth control rate is above 85%)
Weeding effect, activity level (growth control rate), Chenopodium album (Chenopodium album): 5 (Level 5: growth control rate is above 85%)

CCCC1CCC(c2ccc(-c3nccc(C(=O)Nc4nnnn4C)c3Cl)cc2)CC1 (stereo not shown) [Compound 1-14]
Weeding effect, activity level (growth control rate), Amaranthus retroflexus L. [1]: 5 (Level 5: growth control rate is above 85%)
Weeding effect, activity level (growth control rate), Descurainia sophia (Descurainia sophia): 5 (Level 5: growth control rate is above 85%)
Weeding effect, activity level (growth control rate), Abutilon theophrasti (Abutilon theophrasti): 5 (Level 5: growth control rate is above 85%)
Weeding effect, activity level (growth control rate), Chenopodium album (Chenopodium album): 5 (Level 5: growth control rate is above 85%)

Cn1nnnc1NC(=O)c1ccnc(-c2cccc(F)c2)c1Cl [Compound 1-16]
Weeding effect, activity level (growth control rate), Amaranthus retroflexus L. [1]: 5 (Level 5: growth control rate is above 85%)
Weeding effect, activity level (growth control rate), Descurainia sophia (Descurainia sophia): 5 (Level 5: growth control rate is above 85%)
Weeding effect, activity level (growth control rate), Abutilon theophrasti (Abutilon theophrasti): 5 (Level 5: growth control rate is above 85%)
Weeding effect, activity level (growth control rate), Chenopodium album (Chenopodium album): 5 (Level 5: growth control rate is above 85%)

Cn1nnnc1NC(=O)c1ccnc(-c2ccccc2Cl)c1Cl [Compound 1-18]
Weeding effect, activity level (growth control rate), Amaranthus retroflexus L. [1]: 5 (Level 5: growth control rate is above 85%)
Weeding effect, activity level (growth control rate), Descurainia sophia (Descurainia sophia): 5 (Level 5: growth control rate is above 85%)
Weeding effect, activity level (growth control rate), Abutilon theophrasti (Abutilon theophrasti): 5 (Level 5: growth control rate is above 85%)
Weeding effect, activity level (growth control rate), Chenopodium album (Chenopodium album): 5 (Level 5: growth control rate is above 85%)

Cn1nnnc1NC(=O)c1ccnc(-c2cccc(Cl)c2)c1Cl [Compound 1-19]
Weeding effect, activity level (growth control rate), Amaranthus retroflexus L. [1]: 5 (Level 5: growth control rate is above 85%)
Weeding effect, activity level (growth control rate), Descurainia sophia (Descurainia sophia): 5 (Level 5: growth control rate is above 85%)
Weeding effect, activity level (growth control rate), Abutilon theophrasti (Abutilon theophrasti): 5 (Level 5: growth control rate is above 85%)
Weeding effect, activity level (growth control rate), Chenopodium album (Chenopodium album): 5 (Level 5: growth control rate is above 85%)

Cn1nnnc1NC(=O)c1ccnc(-c2ccc(Cl)cc2)c1Cl [Compound 1-20]
Weeding effect, activity level (growth control rate), Amaranthus retroflexus L. [1]: 5 (Level 5: growth control rate is above 85%)
Weeding effect, activity level (growth control rate), Descurainia sophia (Descurainia sophia): 5 (Level 5: growth control rate is above 85%)
Weeding effect, activity level (growth control rate), Abutilon theophrasti (Abutilon theophrasti): 5 (Level 5: growth control rate is above 85%)
Weeding effect, activity level (growth control rate), Chenopodium album (Chenopodium album): 5 (Level 5: growth control rate is above 85%)

Cn1nnnc1NC(=O)c1ccnc(-c2cccc(Br)c2)c1Cl [Compound 1-21]
Weeding effect, activity level (growth control rate), Amaranthus retroflexus L. [1]: 5 (Level 5: growth control rate is above 85%)
Weeding effect, activity level (growth control rate), Descurainia sophia (Descurainia sophia): 5 (Level 5: growth control rate is above 85%)
Weeding effect, activity level (growth control rate), Abutilon theophrasti (Abutilon theophrasti): 5 (Level 5: growth control rate is above 85%)
Weeding effect, activity level (growth control rate), Chenopodium album (Chenopodium album): 5 (Level 5: growth control rate is above 85%)
